According to article PMC4128571 (Drug testing and analysis, 2014):

Legend:
Assay type in all cases: biochemical
[1] = biological target: dopamine transporters (DAT) (Rattus norvegicus, UniProt P23977); details: for DAT/SERT ratio: (EC50 at DAT)^-1/(EC50 at SERT)^-1, higher value indicates greater DAT selectivity; for Efficacy to evoke release at DAT (of maximal release): rat brain synaptosomes
[2] = biological target: norepinephrine transporters (NET) (Rattus norvegicus, UniProt Q63380); details: rat brain synaptosomes
norepinephrine transporters (NET), sequence (Q63380 1-617): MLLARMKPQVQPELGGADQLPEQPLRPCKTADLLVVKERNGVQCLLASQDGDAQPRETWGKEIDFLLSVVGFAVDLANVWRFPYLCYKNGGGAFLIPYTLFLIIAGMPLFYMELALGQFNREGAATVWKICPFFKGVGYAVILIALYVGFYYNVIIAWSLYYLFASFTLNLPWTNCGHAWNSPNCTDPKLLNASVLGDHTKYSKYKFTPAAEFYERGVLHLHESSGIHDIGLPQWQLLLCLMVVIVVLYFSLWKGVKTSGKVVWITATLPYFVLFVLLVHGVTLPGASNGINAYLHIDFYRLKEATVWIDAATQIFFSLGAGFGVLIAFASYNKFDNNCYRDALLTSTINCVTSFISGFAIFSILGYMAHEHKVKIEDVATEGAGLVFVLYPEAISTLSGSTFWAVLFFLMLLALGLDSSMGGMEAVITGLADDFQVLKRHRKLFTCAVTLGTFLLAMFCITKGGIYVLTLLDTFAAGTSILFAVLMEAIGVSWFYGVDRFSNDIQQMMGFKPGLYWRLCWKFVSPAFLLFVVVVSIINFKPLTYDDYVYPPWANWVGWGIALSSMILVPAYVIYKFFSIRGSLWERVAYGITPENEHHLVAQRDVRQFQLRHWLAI

5-HT transporters (SERT) = 5-HT transporters (SERT) (Rattus norvegicus, UniProt P31652); details: for Efficacy to evoke release at SERT (of maximal release): rat brain synaptosomes
5-HT transporters (SERT), sequence (P31652 whole entry): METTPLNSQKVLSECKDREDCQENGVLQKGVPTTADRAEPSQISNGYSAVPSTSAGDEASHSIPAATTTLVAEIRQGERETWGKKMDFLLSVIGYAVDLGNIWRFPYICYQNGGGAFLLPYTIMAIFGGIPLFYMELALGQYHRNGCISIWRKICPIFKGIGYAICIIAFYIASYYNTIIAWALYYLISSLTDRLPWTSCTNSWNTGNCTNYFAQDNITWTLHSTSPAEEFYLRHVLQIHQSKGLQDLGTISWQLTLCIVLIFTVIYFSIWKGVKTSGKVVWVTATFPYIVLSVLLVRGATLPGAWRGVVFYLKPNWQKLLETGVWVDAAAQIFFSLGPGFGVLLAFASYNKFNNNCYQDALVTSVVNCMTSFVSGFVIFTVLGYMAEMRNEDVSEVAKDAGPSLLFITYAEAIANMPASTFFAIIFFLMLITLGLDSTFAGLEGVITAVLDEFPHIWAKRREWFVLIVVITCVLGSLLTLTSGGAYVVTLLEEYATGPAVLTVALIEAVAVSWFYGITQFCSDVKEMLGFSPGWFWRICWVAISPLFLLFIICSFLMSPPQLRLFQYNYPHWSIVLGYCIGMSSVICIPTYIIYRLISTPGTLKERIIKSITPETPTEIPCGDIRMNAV

dopamine transporters (DAT), sequence (P23977 whole entry): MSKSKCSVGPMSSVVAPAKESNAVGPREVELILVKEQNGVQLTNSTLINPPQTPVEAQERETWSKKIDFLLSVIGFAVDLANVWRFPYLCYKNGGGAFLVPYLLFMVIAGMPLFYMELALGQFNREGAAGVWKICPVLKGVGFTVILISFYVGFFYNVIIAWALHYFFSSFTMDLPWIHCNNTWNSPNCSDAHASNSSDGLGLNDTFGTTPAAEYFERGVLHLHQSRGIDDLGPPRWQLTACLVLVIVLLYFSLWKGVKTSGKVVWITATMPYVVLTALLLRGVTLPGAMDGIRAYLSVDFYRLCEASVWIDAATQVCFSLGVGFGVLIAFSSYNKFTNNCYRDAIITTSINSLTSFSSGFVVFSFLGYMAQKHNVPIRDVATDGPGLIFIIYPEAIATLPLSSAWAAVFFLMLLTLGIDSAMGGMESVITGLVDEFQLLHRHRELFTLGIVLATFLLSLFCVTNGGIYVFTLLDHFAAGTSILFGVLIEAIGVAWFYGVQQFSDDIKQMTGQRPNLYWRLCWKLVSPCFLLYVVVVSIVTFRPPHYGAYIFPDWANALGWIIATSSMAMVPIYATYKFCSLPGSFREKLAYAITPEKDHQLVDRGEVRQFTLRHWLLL

Compound: Cc1ccc([C@H]2OC(N)=N[C@H]2C)cc1 (racemic) [(±)-cis-4,4'-DMAR, (±)-cis-4-Methyl-5-(4-methylphenyl)-4,5-dihydrooxazol-2-amine]
- DAT/SERT ratio [1]: 2
- Efficacy to evoke release at DAT (of maximal release) [1]: fully efficacious
- Efficacy to evoke release at NET (of maximal release) [2]: fully efficacious
- Efficacy to evoke release at SERT (of maximal release) (5-HT transporters (SERT)): fully efficacious

Compound: C[C@@H]1N=C(N)O[C@@H]1c1ccccc1 (racemic) [(±)-cis-4-MAR, (±)-cis-4-methylaminorex]
- DAT/SERT ratio [1]: 31
- Efficacy to evoke release at DAT (of maximal release) [1]: fully efficacious
- Efficacy to evoke release at NET (of maximal release) [2]: fully efficacious
- Efficacy to evoke release at SERT (of maximal release) (5-HT transporters (SERT)): fully efficacious

Compound: NC1=NCC(c2ccccc2)O1 (stereo not drawn) [Aminorex, 5-phenyl-4,5-dihydrooxazol-2-amine]
- EC50 [1]: 0.0091 ± 0.0009 µM
- DAT/SERT ratio [1]: 45
- Efficacy to evoke release at DAT (of maximal release) [1]: fully efficacious
- Efficacy to evoke release at NET (of maximal release) [2]: fully efficacious
- EC50 (5-HT transporters (SERT)): 0.414 ± 0.078 µM
- Efficacy to evoke release at SERT (of maximal release) (5-HT transporters (SERT)): fully efficacious

Compound: C[C@H](N)Cc1ccccc1 [d-Amphetamine]
- Efficacy to evoke release at NET (of maximal release) [2]: fully efficacious
